The values below come from patent EP4567031A1, “HPK1 INHIBITOR, PREPARATION METHOD THEREFOR, AND USE THEREOF” (Beijing Earthwise Technology Co., Ltd., priority 2022, dated 2024).

The subject of one experiment is Phospho-SLP-76 (Ser376). Description: Phospho-SLP-76 (Ser376) HTRF assay in Jurkat E6-1 cells. As to conditions: Homo sapiens, compound 4 hours, then anti-CD3 antibody 20 minutes, read-out: pSLP76, IC50. The experiment is classed as cell-based. The method, then:
A compound was dissolved in DMSO to 10 mM, and then diluted three-fold with DMSO to 10 dosages in a 96-well plate. Then, 3 µL of the diluted compound sample was transferred to a 96-well plate with 97 µL of cell culture medium, and the plate was shaken for 5 minutes. According to the experimental design diagram, 7.5 µL of the diluted compound sample was transferred to a cell plate. Final concentrations of the compound in this assay were 10000.00, 3333.33, 1111.11, 370.37, 123.46, 41.15, 13.72, 4.57, 1.52 and 0.51 nM.
In this assay, the density of Jurkat E6-1 cells was maintained between 3*10^5 to 3*10^6 cells/mL. The cell culture was replaced with fresh culture medium every 2 to 3 days (depending on the cell density).
30 µL of Jurkat E6-1 (300,000 cells) was added to a 96-well plate and incubated in a 37 °C incubator for 1 hour. Then, according to the experimental design diagram, compounds (6×, 7.5 µL) were added to treat the cells for 4 hours, respectively. After 4 hours, purified anti-human anti-CD3 antibodies (6×, 7.5 µL) were added to treat the cells for 20 minutes. After 20 minutes, 15 µL of cell lysis buffer (4×) was added, and the cells were lysed at 25 °C with shaking (250 rpm) for 1 hour. Then, according to the experimental design diagram, 16 µL of cell lysate was transferred to a 384-well plate using a pipette. After the transfer, 4 µL of antibody detection mixture was added. After being placed at room temperature overnight, the plate was read by EnVision multi-function microplate reader to read the FRET signal (the ratio of HTRF 665/615 was calculated from the readings at 665 nm and 615 nm).
The ratio of the signal at 665 nm to the signal at 615 nm was converted to the percentage of inhibition. Inhibition % = (maximum value - sample value) / (maximum value - minimum value)×100. The minimum value refers to the signal value of a well without anti-CD3 antibody stimulation during the treatment of cells, and the maximum value refers to the signal value of a well with anti-CD3 antibody stimulation but without the compound during the treatment of cells. IC50 values were calculated by XLFit (version 5.3.1.3) in excel. Equation: Y = Bottom + (Top-Bottom) / (1 + (IC50/X) ^ HillSlope). Table 4. Results of cellular activity of the compounds

In experiment [1] the target is T1, HPK1 (Homo sapiens, UniProt Q92918). The experiment is described as follows: HPK1 ADP-Glo kinase assay. It is filed as biochemical. As to conditions: 40 µM ATP; 5 nM HPK1; MBP protein substrate. The method, then:
1×kinase buffer (40 mM Tris-HCl (pH 7.5), 20 mM MgCl2, 0.1 mg/ml BSA, 0.05 mM DTT), 2 µM MBP protein and 40 µM ATP, […] were included in the reaction mixture. The reaction was initiated by adding 5 nM HPK1. After 60 minutes of reaction, the assay was terminated by adding 5 µL of ADP-Glo™ reagent. After 60 minutes, 10 µL of kinase assay reagent was added. After being incubated at room temperature for 60 minutes, the assay plate was read by EnVision multi-function microplate reader.
The luminescent signal value was converted to the percentage of inhibition. Inhibition % = (maximum value - sample value) / (maximum value - minimum value)×100. The minimum value refers to the value measured in a well without enzyme but with DMSO and substrate, and the maximum value refers to the value measured in a well with DMSO, enzyme and substrate. IC50 values were calculated by XLFit (version 5.3.1.3) in Excel. Equation: Y = bottom + (top - bottom) / (1 + (IC50/X) ^ HillSlope).
On the technique in general: ADP-Glo turns the ADP formed in a reaction into a luminescent signal.

In another experiment the test system is human Pan T cells. Description: Human Pan T cell IL-2 ELISA. It is filed as cell-based. As to conditions: Homo sapiens, T-cell, 48 h, Anti-CD3 and Anti-CD28, supernatant IL-2 ELISA, read-out: IL-2 release, EC50. The essentials: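 Human Pan T cells (1×10^6 cells/ml) stimulated with plate-bound anti-CD3 plus anti-CD28 and treated 48 h with compound at 9 final concentrations, 39.063–10000 nM. Supernatant IL-2 by ELISA, expressed as fold over DMSO wells; EC50 from four-parameter logistic fit.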

Experiment [2] has as its target T1, HPK1. Description: HPK1 HTRF kinase assay. The experiment is classed as biochemical. The settings on record: 1000 µM ATP; 50 nM HPK1; STK1 substrate; read-out: HPK1, IC50. The method, then:
The reaction was initiated by adding 50 nM HPK1. After 120 minutes of reaction, the assay was terminated by adding 10 µL of Detection Mix.
The ratio of the signal at 665 nm to the signal at 615 nm was converted to the percentage of inhibition. Inhibition % = (maximum value - sample value) / (maximum value - minimum value)×100. The minimum value refers to the value measured in a well without enzyme but with DMSO and substrate, and the maximum value refers to the value measured in a well with DMSO, enzyme and substrate. IC50 values were calculated by XLFit (version 5.3.1.3) in Excel. Equation: Y = Bottom + (Top - Bottom) / (1 + (IC50/X) ^ HillSlope).
Background: In TR-FRET formats the signal depends on donor and acceptor labels being close together.

T1 sequence (Q92918 whole entry, species assumed): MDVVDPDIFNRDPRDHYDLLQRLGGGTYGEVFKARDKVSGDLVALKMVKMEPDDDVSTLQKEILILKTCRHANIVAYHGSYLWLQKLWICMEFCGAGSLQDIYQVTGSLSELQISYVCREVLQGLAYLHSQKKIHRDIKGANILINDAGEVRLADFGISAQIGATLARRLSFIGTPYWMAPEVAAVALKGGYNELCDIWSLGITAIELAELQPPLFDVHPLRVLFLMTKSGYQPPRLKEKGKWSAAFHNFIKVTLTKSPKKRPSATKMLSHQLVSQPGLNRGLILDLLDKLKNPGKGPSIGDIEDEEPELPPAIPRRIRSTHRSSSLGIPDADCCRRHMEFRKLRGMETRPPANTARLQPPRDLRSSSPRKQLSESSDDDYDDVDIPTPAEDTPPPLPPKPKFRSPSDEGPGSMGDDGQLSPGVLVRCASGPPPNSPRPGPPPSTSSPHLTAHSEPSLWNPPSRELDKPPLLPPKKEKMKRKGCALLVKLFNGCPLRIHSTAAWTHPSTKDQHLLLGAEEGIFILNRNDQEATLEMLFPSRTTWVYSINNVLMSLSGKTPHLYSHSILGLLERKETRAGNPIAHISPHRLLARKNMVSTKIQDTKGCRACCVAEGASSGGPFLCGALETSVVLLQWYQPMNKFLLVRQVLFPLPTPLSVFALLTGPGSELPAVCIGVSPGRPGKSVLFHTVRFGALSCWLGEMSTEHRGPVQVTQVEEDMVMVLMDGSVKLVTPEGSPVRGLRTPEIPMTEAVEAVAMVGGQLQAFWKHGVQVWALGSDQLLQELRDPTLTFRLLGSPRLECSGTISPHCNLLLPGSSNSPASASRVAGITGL

What is called IC50 is the concentration needed to halve the response being measured. In the case of `CC1(C)c2cc(N3CCOCC3)ccc2Nc2c1cc(-c1cnc3c(Cl)cccn13)c1cc[nH]c(=O)c21` [Example 1], the values for the half-inhibitory concentration (IC50) with Phospho-SLP-76 (Ser376) and on HPK1 [1] were 121 nM and 0.1 nM, respectively.
For the compound `COc1cccn2c(-c3cc4c(c5c(=O)[nH]ccc35)Nc3ccc(N5CCOC(C(C)(C)O)C5)cc3C4(C)C)cnc12` (stereo not drawn) [Example 2], the IC50 was 64 nM with Phospho-SLP-76 (Ser376) and 1.7 nM at HPK1 [1].
For orientation: EC50 means the concentration that produces a half-maximal response. Regarding `COc1cccn2c(-c3cc4c(c5c(=O)[nH]ccc35)Nc3ccc(N5CCOCC5)cc3C4(C)C)cnc12` [Example 3], in the experiment with human Pan T cells, the concentration giving a half-maximal response (EC50) is 38 nM. In addition, the results for the IC50 with Phospho-SLP-76 (Ser376) and against HPK1 [1] were 57.5 nM and 0.3 nM, respectively.
Consider `Cc1ccn2c(-c3cc4c(c5c(=O)[nH]ccc35)Nc3ccc(N5CCOCC5)cc3C4(C)C)cnc2c1F` [Example 5], for which, in the experiment on human Pan T cells, the 50% effective concentration (EC50) was determined as 10.8 nM. This compound also returned an IC50 against HPK1 [1] of 3.44 nM.
As to `COc1cccc2c(-c3cc4c(c5c3CNC5=O)Nc3ccc(N5CCOCC5)cc3C4(C)C)cnn12` [Example 18], the EC50 in the experiment on human Pan T cells amounted to 11.8 nM. Moreover, the IC50 in the experiment on Phospho-SLP-76 (Ser376) is 66 nM; at HPK1 [2], 11.7 nM.
`COc1cccn2c(-c3cc4c(c5c3CNC5=O)Nc3ccc(N5CCOCC5)nc3C4(C)C)cnc12` [Example 20]: in the experiment with human Pan T cells, the 50% effective concentration (EC50) worked out at 11.3 nM. Besides, the results for the IC50 in the experiment on Phospho-SLP-76 (Ser376) and at HPK1 [2] were 83.6 nM and 5.76 nM, respectively.
For `COc1ccnn2c(-c3cc4c(c5c3CNC5=O)Nc3ccc(N5CCOCC5)cc3C4(C)C)cnc12` [Example 31], the EC50 in the experiment on human Pan T cells amounted to 3.7 nM. Moreover, the figures for the 50% inhibitory concentration (IC50) with Phospho-SLP-76 (Ser376) and on HPK1 [2] were 58.8 nM and 24.8 nM, respectively.
